Results reported in patent US6921667B2, “Methods for direct detection of individual methotrexate metabolites” (Prometheus Laboratories, Inc., priority 2003, dated 2005).

Test: Red blood cell methotrexate polyglutamate concentrations in patients on low-dose methotrexate, by HPLC fluorometry with post-column photo-oxidation
Format: in vivo, human
Conditions: single patient on 17.5 mg weekly methotrexate for at least 3 months; FIG. 4A; packed red blood cells
Method: The liquid chromatograph was an Agilent 1100 HPLC chemstation system composed of a quaternary pump, a system controller, an autoinjector, a sample cooler kept at 4° C., and a fluorometer. […] Methotrexate polyglutamates were detected with post-column derivatization using a photochemical reactor unit (Aura Industries; New York, N.Y.) equipped with an elongated 254 nm low pressure mercury ultraviolet lamp and containing a 1/16″ outer diameter TEFLON™ tubing (internal diameter 0.25 mm) assembled as a knitted coil and connected on-line between the analytical column and fluorometer. The knitted coil was extended lengthwise through the photochemical reactor unit; all but a portion of the elongated lamp was masked with foil such that only a segment of the knitted coil was irradiated. In particular, the lamp was masked such that only 1 meter of the coil was irradiated with the lamp, which at a flow rate of 1 ml/min corresponded to 3 seconds irradiation. Methotrexate polyglutamate photolytic products were measured at an excitation wavelength of 274 nm and an emission wavelength of 464 nm, unless otherwise indicated. The retention times described herein were measured from time of injection to time of detection at the post-reactor unit fluorometer. […]
Methotrexate polyglutamate photolytic products were analyzed at an excitation wavelength of 274 nm and an emission wavelength of 464 nm. […]

concentration in red blood cell sample: 27 nmol/L
SMILES: CN(Cc1cnc2nc(N)nc(N)c2n1)c1ccc(C(=O)N[C@@H](CCC(=O)O)C(=O)O)cc1 [MTXPG1, 4-amino-10-methylpteroylglutamic acid]
